Values quoted from earlier work, collected in US4939134A, “26-aminocholesterol and derivatives and analogs thereof in the regulation of cholesterol accumulation in body tissue” (New York University, priority 1988, dated 1990).

Tests used:
LDL receptors = conditions: fibroblasts and other non-hepatic cells, cell culture studies; cited from earlier work
HMG CoA reductase = conditions: cited from earlier work
[1] = tested on: hepatic cholesterol synthesis; conditions: cited from earlier work

Which LDL receptors (LDL receptors) does the source give for `CC[C@H](C)C(=O)O[C@H]1C[C@@H](C)C=C2C=C[C@H](C)[C@H](CC[C@@H]3C[C@@H](O)CC(=O)O3)[C@H]21` [mevinolin] here?
Its LDL receptors is “upregulates LDL receptors”.

What about the “amount of HMG CoA reductase” value (HMG CoA reductase) of the same compound?
The value was “increases the amount of HMG CoA reductase”.

And the hepatic cholesterol synthesis [1]?
Its hepatic cholesterol synthesis is “inhibit hepatic cholesterol synthesis”.
